# According to patent US11965159B2, “Compositions and methods for regulating proteins and nucleic acids activities” (THE BROAD INSTITUTE, INC., priority 2019, dated 2024):
# Key:
# SpCas9:gRNA complex = biological target: T1, SpCas9:gRNA complex (Streptococcus pyogenes serotype M1, UniProt Q99ZW2); test: Compound-Cas9 interaction in Bio-Layer Interferometry (BLI); assay type: binding; details: excess (10×) of biotin to BRD7087 loading
# T1 construct: His6 (N, cleaved yes); made in house; host or cells: E. coli BL21 Star (DE3)
# Protocol: Compound-Cas9 interaction in BLI. The experiments were performed in a 96-well format with 180 μL reaction volume using biotinylated compound BRD7087-Biotin and streptavidin sensors. 1 μM of the biotinylated compound was loaded onto the sensors for 180s in 20 mM Tris buffer of pH 7.4, 100 mM KCl, 5 mM MgCl2, 1 mM DTT, 0.01% Tween. The compound loaded sensors were then allowed to associate with the different concentration of SpCas9:gRNA complex (1-0.15 μM) for 300s followed by dissociation in the reaction buffer. Reference sensor was loaded with compound and allowed to associate and dissociate in the reaction buffer alone. The response curves were fitted with a 2:1 stoichiometric model and a global fit steady-state analysis were performed using manufacturer inbuilt protocol. The experiment was performed in three replicates.
# The competitive experiments were performed using Biotin-linker fragment. In this experiment, streptavidin sensors were pre-incubated with 10 μM of Biotin-linker before dipping into a solution of either 1 μM BRD7087-Biotin or reaction buffer alone. Sensors were then allowed to associate with different concentration of SpCas9:gRNA complex or buffer alone.
# Compound-Cas9 interaction in BLL The experiments were performed in a 96-well format with 180 μL reaction volume using biotinylated compound BRD7087-Biotin and streptavidin sensors. […]
# SpCas9 = SpCas9 (Streptococcus pyogenes serotype M1, UniProt Q99ZW2); test: Cas9 nuclease activity in EGFP disruption assay in U2OS.eGFP.PEST cells; assay type: cell-based; design: host or cells: U2OS.eGFP-PEST; details: 10, 15, 20 μM, 24 h
# Protocol: Cas9 Nuclease activity in EGFP disruption assay. Approximately 200,000 U2OS.eGFP-PEST cells were nucleofected with 400 ng of SpCas9 (Addgene Plasmid #43861) and 40 ng of sgRNA (pFYF1320 EGFP Site #1, Addgene Plasmid #47511) expressing plasmids along with a Td-tomato-encoding plasmid using the SE Cell Line 4D-Nucleofector™ X Kit (Lonza™) according to the manufacturer's protocol. Approximately 20,000 transfected cells/well in 3 replicates were plated in a 96-well plate (Corning® 3904). Cells were allowed to grow in the indicated amount of compound or DMSO for 24 h post transfection. Cells were then fixed using 4% paraformaldehyde and imaged with the HCS NuclearMask™ Blue Stain (Life Technologies™) as the nuclear counter-staining agent. Imaging was performed with an IXM 137204 ImageXpress® Automated High Content Microscope (Molecular Devices™) at 10× magnification under three excitation channels (blue, green and red) with 9 acquiring sites per well. Images were analyzed in the MetaXpress® software and data were plotted using GraphPad Prism 6. The Z′-value was calculated following the formula: […]
# Cas9 Nuclease activity in EGFP disruption assay. In some embodiments, a quantitative human cell-based reporter assay that enables rapid quantitation of targeted nuclease activities is used to characterize off-target cleavage of CRISPR protein-based RNA guided endonucleases. In this assay, the activities of nucleases targeted to a single integrated EGFP reporter gene can be quantified by assessing loss of fluorescence signal in human U2OS.EGFP cells caused by inactivating frameshift insertion/deletion (indel) mutations introduced by error prone non-homologous end-joining (NHEJ) repair of nuclease-induced double-stranded breaks (DSBs).
# Approximately 200,000 U2OS.eGFP-PEST cells were nucleofected with 400 ng of SpCas9 (Addgene Plasmid #43861) and 40 ng of sgRNA (pFYF1320 EGFP Site #1, Addgene Plasmid #47511) expressing plasmids along with a Td-tomato-encoding plasmid using the SE Cell Line 4D-Nucleofector™ X Kit (Lonza™) according to the manufacturer's protocol. […]
# Sequence of SpCas9 (Q99ZW2 whole entry): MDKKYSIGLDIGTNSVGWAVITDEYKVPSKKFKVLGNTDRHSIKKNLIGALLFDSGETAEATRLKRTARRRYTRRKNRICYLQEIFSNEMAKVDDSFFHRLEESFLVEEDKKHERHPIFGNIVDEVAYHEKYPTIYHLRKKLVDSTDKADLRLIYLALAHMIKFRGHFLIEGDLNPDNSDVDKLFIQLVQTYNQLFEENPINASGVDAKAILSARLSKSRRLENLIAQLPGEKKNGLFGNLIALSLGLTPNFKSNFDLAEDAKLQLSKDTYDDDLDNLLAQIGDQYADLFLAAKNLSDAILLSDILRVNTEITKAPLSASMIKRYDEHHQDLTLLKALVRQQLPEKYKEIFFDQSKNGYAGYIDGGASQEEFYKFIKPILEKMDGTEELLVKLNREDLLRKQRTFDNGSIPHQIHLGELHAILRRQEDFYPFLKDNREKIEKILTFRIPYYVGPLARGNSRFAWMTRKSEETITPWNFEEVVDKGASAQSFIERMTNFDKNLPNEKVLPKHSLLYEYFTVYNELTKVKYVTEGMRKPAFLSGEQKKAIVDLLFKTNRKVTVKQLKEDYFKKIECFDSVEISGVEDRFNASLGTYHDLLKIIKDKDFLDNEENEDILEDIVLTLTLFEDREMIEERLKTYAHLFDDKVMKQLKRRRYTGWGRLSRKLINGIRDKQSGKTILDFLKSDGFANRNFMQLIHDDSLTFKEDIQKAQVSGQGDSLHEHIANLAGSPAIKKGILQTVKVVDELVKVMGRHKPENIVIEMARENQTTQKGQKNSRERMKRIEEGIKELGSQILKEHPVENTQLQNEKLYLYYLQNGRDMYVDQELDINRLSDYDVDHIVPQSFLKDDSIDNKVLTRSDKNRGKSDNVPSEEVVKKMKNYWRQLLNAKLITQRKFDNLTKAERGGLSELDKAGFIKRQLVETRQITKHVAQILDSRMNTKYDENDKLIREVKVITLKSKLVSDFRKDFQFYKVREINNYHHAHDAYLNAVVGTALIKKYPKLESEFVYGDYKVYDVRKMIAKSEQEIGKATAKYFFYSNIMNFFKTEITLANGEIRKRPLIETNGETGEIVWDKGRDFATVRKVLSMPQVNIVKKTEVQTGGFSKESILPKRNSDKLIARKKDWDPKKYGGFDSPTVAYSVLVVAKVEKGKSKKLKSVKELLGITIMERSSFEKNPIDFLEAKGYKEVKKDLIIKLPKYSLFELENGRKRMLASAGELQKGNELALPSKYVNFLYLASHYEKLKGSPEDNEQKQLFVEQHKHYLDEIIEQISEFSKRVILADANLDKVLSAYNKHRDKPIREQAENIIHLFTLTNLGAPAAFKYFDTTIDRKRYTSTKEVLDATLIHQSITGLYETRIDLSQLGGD
# T1 sequence (Q99ZW2 whole entry, one chain of several): as the sequence (Q99ZW2 whole entry) above
SMILES,BLI response signal in competitive experiment (SpCas9:gRNA complex),potency of stereoisomers in EGFP-disruption assay relative to BRD7087 / BRD5779 (SpCas9)
"O=C(CCCC[C@@H]1SC[C@@H]2NC(=O)N[C@@H]21)NCCOCCOCCOCCC(=O)Nc1cccc(-c2ccc3c(c2)[C@H]2[C@H](CCN2Cc2ccncc2)[C@@H](CO)N3)c1 [biotin-conjugate of BRD7087, N-(2-(2-(2-(3-((3-((3aR,4S,9bR)-4-(Hydroxymethyl)-1-(pyridin-4-ylmethyl)-2,3,3a,4,5,9b-hexahydro-1H-pyrrolo[3,2-c]quinolin-8-yl)phenyl)amino)-3-oxopropoxy)ethoxy)ethoxy)ethyl)-5-((3aS,4S,6aR)-2-oxohexahydro-1H-thieno[3,4-d]imidazol-4-yl)pentanamide]",no substantial response signal,–
"OC[C@H]1Nc2ccc(-c3cccc(F)c3)cc2[C@@H]2[C@H]1CCN2Cc1ccncc1 [BRD0750, ((3aS,4S,9bS)-8-(3-Fluorophenyl)-1-(pyridin-4-ylmethyl)-2,3,3a,4,5,9b-hexahydro-1H-pyrrolo[3,2-c]quinolin-4-yl)methanol]",–,less potent
"OC[C@@H]1Nc2ccc(-c3cccc(F)c3)cc2[C@H]2[C@@H]1CCN2Cc1ccncc1 [BRD2161, ((3aR,4R,9bR)-8-(3-Fluorophenyl)-1-(pyridin-4-ylmethyl)-2,3,3a,4,5,9b-hexahydro-1H-pyrrolo[3,2-c]quinolin-4-yl)methanol]",–,less potent
"OC[C@@H]1Nc2ccc(-c3cccc(F)c3)cc2[C@@H]2[C@H]1CCN2Cc1ccncc1 [BRD5039, ((3aS,4R,9bS)-8-(3-Fluorophenyl)-1-(pyridin-4-ylmethyl)-2,3,3a,4,5,9b-hexahydro-1H-pyrrolo[3,2-c]quinolin-4-yl)methanol]",–,equipotent as BRD7087
